From patent US6670446B1, “N1 modified glycopeptides” (Eli Lilly and Company, priority 1998, dated 2003)

Experiments:
Assay type in all cases: cell-based
[1] = test system: Resistant Enterococcus faecium and faecalis; assay: MIC, standard broth micro-dilution assay, Resistant; details: geometric mean of 4-6 isolates
Protocol: (§1) The antibacterial efficacy of the present compounds is illustrated by Table III. The minimal inhibitory concentrations (MICs) were determined using a standard broth micro-dilution assay.

[2] = test system: Sensitive Enterococcus faecium and faecalis; assay: MIC, standard broth micro-dilution assay, Sensitive; details: geometric mean of 4-6 isolates
Protocol: as §1

[3] = test system: Staphylococcus aureus 446; assay: MIC, standard broth micro-dilution assay, SA 446
Protocol: as §1

[4] = test system: Staphylococcus aureus 489; assay: MIC, standard broth micro-dilution assay, SA 489
Protocol: as §1

[5] = test system: Staphylococcus aureus 447; assay: MIC, standard broth micro-dilution assay, SA 447
Protocol: as §1

[6] = test system: Staphylococcus aureus X400; assay: MIC, standard broth micro-dilution assay, SA X400
Protocol: as §1

[7] = test system: Staphylococcus aureus X778; assay: MIC, standard broth micro-dilution assay, SA X778
Protocol: as §1

[8] = test system: Staphylococcus aureus 491; assay: MIC, standard broth micro-dilution assay, SA 491
Protocol: as §1

[9] = test system: Staphylococcus aureus S13E
Protocol: as §1

[10] = test system: Staphylococcus aureus SA1199; assay: MIC, standard broth micro-dilution assay, SA 1199
Protocol: as §1

[11] = test system: Staphylococcus aureus SA1199A; assay: MIC, standard broth micro-dilution assay, SA 1199A
Protocol: as §1

[12] = test system: Staphylococcus haemolyticus 105; assay: MIC, standard broth micro-dilution assay, SH 105
Protocol: as §1

[13] = test system: Staphylococcus haemolyticus 415; assay: MIC, standard broth micro-dilution assay, SH 415
Protocol: as §1

[14] = test system: Staphylococcus epidermidis 270; assay: MIC, standard broth micro-dilution assay, SE 270
Protocol: as §1

Enterococcus faecium 180 = assay: MIC, standard broth micro-dilution assay, EF 180
Protocol: as §1

[15] = test system: Enterococcus faecium 180-1; assay: MIC, standard broth micro-dilution assay, EF 180-1
Protocol: as §1

[16] = test system: Enterococcus faecalis 2041; assay: MIC, standard broth micro-dilution assay, EF 2041
Protocol: as §1

[17] = test system: Enterococcus faecalis 276; assay: MIC, standard broth micro-dilution assay, EF 276
Protocol: as §1

[18] = test system: Enterococcus gallinarum 245; assay: MIC, standard broth micro-dilution assay, EG 245
Protocol: as §1

[19] = test system: Haemophilus influenzae RD; assay: MIC, standard broth micro-dilution assay, HFRD
Protocol: as §1

Escherichia coli EC14 = assay: MIC, standard broth micro-dilution assay, EC 14
Protocol: as §1

Structure (SMILES)	minimal inhibitory concentration (MIC), Resistant [1]	minimal inhibitory concentration (MIC), Sensitive [2]	minimal inhibitory concentration (MIC), SA 446 [3]	minimal inhibitory concentration (MIC), SA 489 [4]	minimal inhibitory concentration (MIC), SA 447 [5]	minimal inhibitory concentration (MIC), SA X400 [6]	minimal inhibitory concentration (MIC), SA X778 [7]	minimal inhibitory concentration (MIC), SA 491 [8]	minimal inhibitory concentration (MIC), SA S13E [9]	minimal inhibitory concentration (MIC), SA 1199 [10]	minimal inhibitory concentration (MIC), SA 1199A [11]	minimal inhibitory concentration (MIC), SH 105 [12]	minimal inhibitory concentration (MIC), SH 415 [13]	minimal inhibitory concentration (MIC), SE 270 [14]	minimal inhibitory concentration (MIC), EF 180 (Enterococcus faecium 180)	minimal inhibitory concentration (MIC), EF 180-1 [15]	minimal inhibitory concentration (MIC), EF 2041 [16]	minimal inhibitory concentration (MIC), EF 276 [17]	minimal inhibitory concentration (MIC), EG 245 [18]	minimal inhibitory concentration (MIC), HFRD [19]	other results
CC1OC(OC2c3ccc(c(Cl)c3)Oc3cc4cc(c3OC3OC(CO)C(O)C(O)C3OC3CC(C)(NCc5ccc(-c6ccccc6)cc5)C(O)C(C)O3)Oc3ccc(cc3Cl)C(O)C(NC(=O)C3CCCN3C(=O)OC(C)(C)C)C(=O)NC(CC(N)=O)C(=O)NC4C(=O)NC3C(=O)NC2C(=O)NC(C(=O)O)c2cc(O)cc(O)c2-c2cc3ccc2O)CC(C)(N)C1O [Example 29, N^1-(N-BOC-L-proline) derivative of N^DISACC-(p-phenylbenzyl)desleucylA82846B]	27	1.2	2	0.25	0.5	0.25	0.125	≦.06	0.5	0.125	≦.06	0.125	0.5	≦.06	4	≦.06	0.125	0.25	2	>64	minimal inhibitory concentration (MIC), EC 14 (Escherichia coli EC14): >64
CC1OC(OC2c3ccc(c(Cl)c3)Oc3cc4cc(c3OC3OC(CO)C(O)C(O)C3OC3CC(C)(NCc5ccc(-c6ccccc6)cc5)C(O)C(C)O3)Oc3ccc(cc3Cl)C(O)C(NC(=O)C(N)CCCCN)C(=O)NC(CC(N)=O)C(=O)NC4C(=O)NC3C(=O)NC2C(=O)NC(C(=O)O)c2cc(O)cc(O)c2-c2cc3ccc2O)CC(C)(N)C1O [Example 23, N^1-D-lysine derivative of N^DISACC-(p-phenylbenzyl)desleucylA82846B]	2	0.29	1	0.5	1	2	2	0.5	2	0.5	0.25	1	1	0.125	0.5	≦.06	0.5	0.25	0.125	>64	minimal inhibitory concentration (MIC), EC 14 (Escherichia coli EC14): >64
CSCCC(NC(=O)OC(C)(C)C)C(=O)NC1C(=O)NC(CC(N)=O)C(=O)NC2C(=O)NC3C(=O)NC(C(=O)NC(C(=O)O)c4cc(O)cc(O)c4-c4cc3ccc4O)C(OC3CC(C)(N)C(O)C(C)O3)c3ccc(c(Cl)c3)Oc3cc2cc(c3OC2OC(CO)C(O)C(O)C2OC2CC(C)(NCc3ccc(-c4ccccc4)cc3)C(O)C(C)O2)Oc2ccc(cc2Cl)C1O [Example 15, N^1-(N-BOC-D-methionine) derivative of N^DISACC-(p-phenylbenzyl)desleucylA82846B]	27	1.2	1	1	1	1	0.5	1	1	2	0.125	1	1	0.25	8	≦.06	0.25	0.5	1	>64	minimal inhibitory concentration (MIC), EC 14 (Escherichia coli EC14): >64
CC(C)CCC(=O)N[C@H]1C(=O)N[C@@H](CC(N)=O)C(=O)N[C@H]2C(=O)N[C@H]3C(=O)NC(C(=O)N[C@H](C(=O)O)c4cc(O)cc(O)c4-c4cc3ccc4O)[C@H](OC3CC(C)(N)C(O)C(C)O3)c3ccc(c(Cl)c3)Oc3cc2cc(c3OC2OC(CO)C(O)C(O)C2OC2CC(C)(N)C(O)C(C)O2)Oc2ccc(cc2Cl)[C@H]1O (stereo partly drawn) [Example 4, N^1-(4-methyl-n-pentanoyl)desleucylA82846B]	>128	4	1	0.5	1	0.25	0.5	0.125	0.5	0.5	0.5	0.25	16	0.5	>64	0.5	1	0.5	4	>64	minimal inhibitory concentration (MIC), EC 14 (Escherichia coli EC14): >64
CC(C)CCC(=O)NC1C(=O)NC(CC(N)=O)C(=O)NC2C(=O)NC3C(=O)NC(C(=O)NC(C(=O)O)c4cc(O)cc(O)c4-c4cc3ccc4O)C(OC3CC(C)(N)C(O)C(C)O3)c3ccc(c(Cl)c3)Oc3cc2cc(c3OC2OC(CO)C(O)C(O)C2OC2CC(C)(NCc3ccc(-c4ccc(Cl)cc4)cc3)C(O)C(C)O2)Oc2ccc(cc2Cl)C1O (stereo not drawn) [Example 7, N^1-(4-methyl-n-pentanoyl)-N^DISACC-[p-(p-chlorophenyl)benzyl]desleucylA82846B]	3.4	0.22	0.5	1	0.5	0.5	1	0.125	0.5	1	≦.06	≦.06	1	≦.06	1	≦.06	≦.06	≦.06	≦.06	64	minimal inhibitory concentration (MIC), EC 14 (Escherichia coli EC14): >64
